Columns and labels:
[1] = tested on: COLO 205; assay: Cytotoxicity against human COLO205 cells after 72 hrs by MTT assay; assay type: cell-based; conditions: COLO 205, 72 h
[2] = Cytotoxicity against human HA22T cells after 72 hrs by MTT assay; assay type: cell-based
[3] = Cytotoxicity against SKBR3 cells after 72 hrs by MTT assay; assay type: cell-based; conditions: Homo sapiens, SK-BR-3, 72 h
[4] = tested on: MOLT-4; assay: Cytotoxicity against MOLT4 cells after 72 hrs by MTT assay; conditions: Homo sapiens, MOLT-4, 72 h
[5] = tested on: Nucleic Acid; assay: Binding affinity to Escherichia coli JM83 pUC19 DNA assessed as DNA intercalation assay; assay type: nucleic-acid assay
[6] = tested on: COLO 205; assay: Antitumor activity against human COLO205 cells implanted in SCID mouse at 10 mg/kg injected into tail vein; assay type: functional; conditions: read-out: TGI
[7] = Toxicity in ICR mouse; assay type: organism-based; conditions: in vivo
[8] = tested on: COLO 205; assay: Antitumor activity against human COLO205 cells implanted in SCID mouse at 22.5 mg/kg injected into tail vein; assay type: functional; conditions: read-out: TGI

Row | SC50 [5] | Compound | IC50 [1] | IC50 [2] | IC50 [3] | IC50 [4] | inhibition in vivo at 10 mg/kg [6] | MTD [7] | inhibition in vivo at 22.5 mg/kg [8]
1 |  | COc1ccc2nc3cc(Cl)ccc3c(NCCCN(CCCNc3c4ccc(Cl)cc4nc4ccc(OC)cc34)CC(O)CO)c2c1 (stereo not drawn) | 130 nM | 1720 nM | 1290 nM | < 10 nM |  |  | 
2 |  | COc1ccc2nc3cc(Cl)ccc3c(NCCCCN(CCCNc3c4ccc(Cl)cc4nc4ccc(OC)cc34)Cc3cccs3)c2c1 | 500 nM | 440 nM | 680 nM | 40 nM |  |  | 
3 |  | COc1ccc2nc3cc(Cl)ccc3c(NCCCN(CCCNc3c4ccc(Cl)cc4nc4ccc(OC)cc34)CC3OC(C)(C)OC3C3COC(C)(C)O3)c2c1 (stereo not drawn) | 2190 nM | 4680 nM | 4730 nM | 60 nM |  |  | 
4 |  | COc1ccc2nc3cc(Cl)ccc3c(NCCCCN(CCCNc3c4ccc(Cl)cc4nc4ccc(OC)cc34)Cc3ccoc3)c2c1 | 320 nM | 440 nM | 710 nM | 30 nM |  |  | 
5 |  | COc1ccc2nc3cc(Cl)ccc3c(NCCCN(CCCNc3c4ccc(Cl)cc4nc4ccc(OC)cc34)Cc3ccc(Cl)cc3)c2c1 | 200 nM | 580 nM | 530 nM | < 10 nM |  |  | 
6 | 2 µM | COc1ccc2nc3cc(Cl)ccc3c(NCCCN(CCCNc3c4ccc(Cl)cc4nc4ccc(OC)cc34)Cc3cccc(OC)c3OC)c2c1 | 640 nM | 620 nM | 790 nM | 10 nM |  |  | 
7 |  | COc1ccc2nc3cc(Cl)ccc3c(NCCCN(CCCNc3c4ccc(Cl)cc4nc4ccc(OC)cc34)CC3COC(C)(C)O3)c2c1 (stereo not drawn) | 5600 nM | 3430 nM | 6610 nM | < 10 nM |  |  | 
8 | 2 µM | COc1ccc2nc3cc(Cl)ccc3c(NCCCN(CCCNc3c4ccc(Cl)cc4nc4ccc(OC)cc34)Cc3ccccc3OC)c2c1 | 3610 nM | 930 nM | 710 nM | < 10 nM |  |  | 
9 |  | CCc1ccc(CN(CCCNc2c3ccc(Cl)cc3nc3ccc(OC)cc23)CCCNc2c3ccc(Cl)cc3nc3ccc(OC)cc23)o1 | 2560 nM | 3320 nM | 5250 nM | 100 nM |  |  | 
10 |  | COc1ccc2nc3cc(Cl)ccc3c(NCCCN(CCCNc3c4ccc(Cl)cc4nc4ccc(OC)cc34)Cc3cc(Br)cs3)c2c1 | 720 nM | 840 nM | 700 nM | 60 nM |  |  | 
11 | > 20 µM | COc1ccc2nc3cc(Cl)ccc3c(NCCCN(CCCNc3c4ccc(Cl)cc4nc4ccc(OC)cc34)Cc3ccc(Br)o3)c2c1 | 410 nM | 1110 nM | 4240 nM | < 10 nM |  |  | 
12 | 10 µM | COc1cccc2c1C(=O)c1c(O)c3c(c(O)c1C2=O)C[C@@](O)(C(=O)CO)C[C@@H]3O[C@H]1C[C@H](N)[C@H](O)[C@H](C)O1 [DOXORUBICIN] | 260 nM | 310 nM | 290 nM |  |  |  | 
13 |  | COc1ccc2nc3cc(Cl)ccc3c(NCCCN(CCCNc3c4ccc(Cl)cc4nc4ccc(OC)cc34)Cc3cc(OC)c(OC)c(OC)c3)c2c1 | 4500 nM | 4420 nM | 5040 nM | 60 nM |  |  | 
14 | 2 µM | COc1ccc2nc3cc(Cl)ccc3c(NCCCN(CCCNc3c4ccc(Cl)cc4nc4ccc(OC)cc34)Cc3ccco3)c2c1 | 240 nM | 610 nM | 840 nM | < 10 nM |  |  | 
15 | 2 µM | COc1ccc2nc3cc(Cl)ccc3c(NCCCN(CCCNc3c4ccc(Cl)cc4nc4ccc(OC)cc34)CC3CC3)c2c1 | 1270 nM | 480 nM | 820 nM | < 10 nM |  |  | 
16 | 2 µM | COc1ccc2nc3cc(Cl)ccc3c(NCCCN(CCCNc3c4ccc(Cl)cc4nc4ccc(OC)cc34)Cc3ccccc3)c2c1 | 750 nM | 700 nM | 700 nM | 700 nM |  |  | 
17 |  | COc1ccc2nc3cc(Cl)ccc3c(NCCCN(CCCNc3c4ccc(Cl)cc4nc4ccc(OC)cc34)Cc3ccc(F)cc3F)c2c1 | 770 nM | 230 nM | 780 nM | < 10 nM |  |  | 

Row | SC50 [5] | Compound | IC50 [1] | IC50 [2] | IC50 [3] | IC50 [4] | inhibition in vivo at 10 mg/kg [6] | MTD [7] | inhibition in vivo at 22.5 mg/kg [8]
18 |  | COc1cccc(CN(CCCCNc2c3ccc(Cl)cc3nc3ccc(OC)cc23)CCCNc2c3ccc(Cl)cc3nc3ccc(OC)cc23)c1 | 250 nM | 5660 nM | 1300 nM | 710 nM |  |  | 
19 |  | COc1ccc2nc3cc(Cl)ccc3c(NCCCN(CCCNc3c4ccc(Cl)cc4nc4ccc(OC)cc34)CCc3ccccc3)c2c1 | 700 nM | 650 nM | 680 nM | < 10 nM |  |  | 
20 |  | COc1ccc(CN(CCCCNc2c3ccc(Cl)cc3nc3ccc(OC)cc23)CCCNc2c3ccc(Cl)cc3nc3ccc(OC)cc23)cc1 | 390 nM | 5450 nM | 860 nM | 710 nM |  |  | 
21 |  | CCN(CCCNc1c2ccc(Cl)cc2nc2ccc(OC)cc12)CCCNc1c2ccc(Cl)cc2nc2ccc(OC)cc12 | 90 nM | 5330 nM | 7310 nM | < 20 nM |  | 30 mg/kg | 
22 |  | COc1ccc2nc3cc(Cl)ccc3c(NCCCN(CCCNc3c4ccc(Cl)cc4nc4ccc(OC)cc34)Cc3cccnc3)c2c1 | 500 nM | 740 nM | 640 nM | < 10 nM |  |  | 
23 |  | COc1ccc2nc3cc(Cl)ccc3c(NCCCCN(CCCNc3c4ccc(Cl)cc4nc4ccc(OC)cc34)Cc3ccsc3)c2c1 | 250 nM | 3590 nM | 990 nM | < 10 nM |  |  | 
24 | 2 µM | COc1cccc(CN(CCCNc2c3ccc(Cl)cc3nc3ccc(OC)cc23)CCCNc2c3ccc(Cl)cc3nc3ccc(OC)cc23)c1 | 350 nM | 420 nM | 680 nM | < 10 nM |  |  | 
25 | 4 µM | COc1ccc2nc3cc(Cl)ccc3c(NCCCCNCCCNc3c4ccc(Cl)cc4nc4ccc(OC)cc34)c2c1 | 130 nM | 330 nM | 50 nM | < 20 nM |  |  | 
26 | 2 µM | COc1ccc2nc3cc(Cl)ccc3c(NCCCCN(CCCNc3c4ccc(Cl)cc4nc4ccc(OC)cc34)CC3CC3)c2c1 | 10 nM | 510 nM | 720 nM | < 10 nM |  |  | 
27 | > 20 µM | COc1ccc2nc3cc(Cl)ccc3c(NCCCN(CCCNc3c4ccc(Cl)cc4nc4ccc(OC)cc34)Cc3ccc(Br)s3)c2c1 | 850 nM | 1150 nM | 5800 nM | < 10 nM |  |  | 
28 | 2 µM | COc1ccc2nc3cc(Cl)ccc3c(NCCCN(CCCNc3c4ccc(Cl)cc4nc4ccc(OC)cc34)Cc3sccc3C)c2c1 | 10 nM | 60 nM | 70 nM | < 10 nM |  |  | 
29 |  | COc1ccc2nc3cc(Cl)ccc3c(NCCCCN(CCCNc3c4ccc(Cl)cc4nc4ccc(OC)cc34)Cc3ccco3)c2c1 | 370 nM | 4730 nM | 5070 nM | 60 nM |  |  | 
30 | 2 µM | CCCN(CCCNc1c2ccc(Cl)cc2nc2ccc(OC)cc12)CCCNc1c2ccc(Cl)cc2nc2ccc(OC)cc12 | 1460 nM | 5980 nM | 5780 nM | < 20 nM |  |  | 
31 |  | COc1ccc2nc3cc(Cl)ccc3c(NCCCN(C)CCCNc3c4ccc(Cl)cc4nc4ccc(OC)cc34)c2c1 | 160 nM | 620 nM | 700 nM | < 20 nM |  | 22.5 mg/kg | 2%
32 |  | CCCCCCN(CCCNc1c2ccc(Cl)cc2nc2ccc(OC)cc12)CCCNc1c2ccc(Cl)cc2nc2ccc(OC)cc12 | 890 nM | 6950 nM | 6140 nM | 90 nM |  |  | 
33 |  | COc1ccc2nc3cc(Cl)ccc3c(NCCCN(CCCNc3c4ccc(Cl)cc4nc4ccc(OC)cc34)Cc3ccsc3)c2c1 | 560 nM | 1410 nM | 1170 nM | 70 nM |  |  | 

Row | Compound | SC50 [5] | IC50 [1] | IC50 [2] | IC50 [3] | IC50 [4] | inhibition in vivo at 10 mg/kg [6] | MTD [7] | inhibition in vivo at 22.5 mg/kg [8]
34 | COc1ccc2nc3cc(Cl)ccc3c(NCCCN(CCCNc3c4ccc(Cl)cc4nc4ccc(OC)cc34)Cc3ccccn3)c2c1 | 2 µM | 10 nM | 3970 nM | 720 nM | < 10 nM | 0% | 10 mg/kg | 
35 | COc1ccc2nc3cc(Cl)ccc3c(NCCCN(CCCNc3c4ccc(Cl)cc4nc4ccc(OC)cc34)Cc3ccoc3)c2c1 | 2 µM | 460 nM | 360 nM | 690 nM | 10 nM | 24% | 10 mg/kg | 
36 | COc1ccc2nc3cc(Cl)ccc3c(NCCCNCCCNc3c4ccc(Cl)cc4nc4ccc(OC)cc34)c2c1 | 4 µM | 410 nM | 330 nM | 770 nM | < 20 nM | 80% | 10 mg/kg | 
